Experimental data: article PMC4341838 (Biochemistry, 2015)

Assay: Circular dichroism in POPC liposomes
Format: physicochemical
Conditions: 1:250 peptide:lipid

- Conformation by CD in POPC liposomes, in words: β-sheet-like conformation
Sequence: SSLSLLSLSWLSLSLLSLS [SLscr2]
